The target in the assay is Gamma-aminobutyric acid receptor subunit alpha-1 (Rattus norvegicus, UniProt P62813).

SMILES strings stand for the structures. pKi: −log10 of the molar value. Where “and” joins values, the source holds several entries; their conditions need not be identical. Identical values can stand only once.

As usually defined, the pKi is the Ki on a negative log10 scale, so that one unit is a factor of ten. A higher pKi goes with a low Ki.

Sequence of Gamma-aminobutyric acid receptor subunit alpha-1 (P62813 whole entry): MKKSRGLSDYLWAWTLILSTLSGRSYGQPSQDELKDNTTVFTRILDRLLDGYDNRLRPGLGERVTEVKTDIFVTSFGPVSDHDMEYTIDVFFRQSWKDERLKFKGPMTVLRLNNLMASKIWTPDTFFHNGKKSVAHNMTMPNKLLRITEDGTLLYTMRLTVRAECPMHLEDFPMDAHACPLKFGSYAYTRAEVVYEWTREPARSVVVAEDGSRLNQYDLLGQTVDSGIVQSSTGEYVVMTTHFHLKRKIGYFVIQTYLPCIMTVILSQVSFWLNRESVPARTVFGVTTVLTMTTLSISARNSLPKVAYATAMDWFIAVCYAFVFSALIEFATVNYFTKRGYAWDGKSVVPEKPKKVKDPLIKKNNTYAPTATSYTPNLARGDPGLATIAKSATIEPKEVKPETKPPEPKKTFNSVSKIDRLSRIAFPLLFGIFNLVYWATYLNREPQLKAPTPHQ

Take `CCOC(=O)c1cc2c(cn1)[nH]c1ccccc12`: the pKi was 5.53.

Take `OCCN(CCO)c1nc(N2CCCCC2)c2nc(N(CCO)CCO)nc(N3CCCCC3)c2n1` [Dipyridamine]: the pKi was 7.06 and 6.79.
